Like-named read-outs stand apart in the source and are kept apart here.
Columns and labels:
rCYP1A2 = molecular target: T1, rCYP1A2 (Homo sapiens, UniProt P05177); experiment: luminogenic P450-Glo CYP450 inhibition assay, rCYP1A2; settings: three independent experiments
T1 sequence (P05177 1-516): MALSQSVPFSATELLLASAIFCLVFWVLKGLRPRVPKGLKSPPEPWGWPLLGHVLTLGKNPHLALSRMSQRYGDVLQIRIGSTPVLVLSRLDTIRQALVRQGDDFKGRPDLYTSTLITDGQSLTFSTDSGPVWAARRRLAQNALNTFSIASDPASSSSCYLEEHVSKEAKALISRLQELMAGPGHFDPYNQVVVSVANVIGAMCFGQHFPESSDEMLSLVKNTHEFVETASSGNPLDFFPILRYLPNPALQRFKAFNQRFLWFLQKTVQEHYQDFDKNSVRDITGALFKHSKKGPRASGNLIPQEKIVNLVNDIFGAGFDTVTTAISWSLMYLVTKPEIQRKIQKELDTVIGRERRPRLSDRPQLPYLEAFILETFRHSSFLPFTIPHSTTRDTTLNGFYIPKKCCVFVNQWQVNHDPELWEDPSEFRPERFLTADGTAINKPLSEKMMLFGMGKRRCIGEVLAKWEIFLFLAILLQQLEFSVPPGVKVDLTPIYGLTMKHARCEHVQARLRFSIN
Excerpt: The luminescent cytochrome P450 assay was used to determine CYP450-mediated (CYP1A2, 2C9, 2C19, 2D6, and 3A4) metabolism of atractylodin and β-eudesmol. The assay consisted of each recombinant human CYP450 (rCYP450), control membranes lacking P450 activity, a luminogenic CYP450 substrate (luciferin-ME substrate for rCYP1A2, luciferin-H substrate for rCYP2C9, luciferin-H EGE substrate for rCYP2C19, luciferin-ME EGE substrate for rCYP2D6, and luciferin-IPA substrate for rCYP3A4), KPO4 buffer, luciferin free water, NADPH regeneration system, and a luciferin detection reagent. The rCYP450 enzymes were generated from a baculovirus-infected insect cell expression system. The concentrations of the recombinant CYPs used were 0.5 (rCYP1A2 and rCYP2C9), 0.25 (rCYP2C19 and rCYP2D6) or 0.2 (rCYP3A4) pmol (0.5μL) per reaction. […] A luciferin product was produced after adding 25 µL of NADPH Regeneration System (solution A, solution B, and luciferin-free water) and incubated at 37 °C for 10 (rCYP1A2 and rCYP3A4), 20 (rCYP2C19 and rCYP2C9) or 30 (rCYP2D6) minutes. The reaction was stopped and converted to a luminescent signal after adding Luciferin Detection Reagent (50 µL) and incubated at 25 °C for 20 min. The luminescence signals obtained were determined using a Varioskan® Flash microplate reader (Waltham, MA, USA). The magnitude of luminescence in all of the samples represented CYP450 activity. […] All stock solutions were diluted with luciferin-free water until the final concentration of organic solvent was less than 0.25% (v/v) of the total reaction. The concentration range of atractylodin and β-eudesmol used were 2.74–686 µM and 2.25–562 µM, respectively. […] The concentration that inhibited the activity of each rCYP450 by 50% (IC50) was calculated using Calcusyn software (Cambridge, UK). Data are reported as the median (range) of the three independent experiments.

mCYP1A2 = experiment: ex vivo mCYP1A2 protein expression in mouse liver microsomes (western blot); settings: daily oral 100 mg/kg body weight
Excerpt: (§1) Eight-week-old male ICR (Imprinting Control Region) mice weighing 35–40 g were used to investigate the modulatory effects of atractylodin and β-eudesmol on mCYP1A2 and mCYP3A11. The study protocol was approved by the Ethics Committee for Animal Research at Thammasat University (protocol number 016/2020). All animals were obtained from Nomura Siam International Co., Ltd. (Bangkok, Thailand). The animals were acclimatized for one week before the experiments. A total of 36 mice were allocated to three groups (i) control group (3 mice), (ii) atractylodin-treated group, and (iii) β-eudesmol-treated group. For atractylodin and β-eudesmol-treated groups, animals were fed with 100 mg/kg body weight of each compound for 1, 7, 14, and 21 (3 mice for each dose). Experiments were performed under the guidelines for the care and use of laboratory animals in a controlled environment of 12 h dark/light cycle, temperature 22 ± 2 °C, and relative humidity 30–70% at the Thammasat University Animal Center. Animals were observed daily for changes in signs and symptoms by a veterinarian. Mice were allowed access to the food pellets and water ad libitum.
(§2) Mouse liver samples were cut into small pieces, and the liver microsomes were prepared as described previously. The concentrations of proteins in the microsomes were determined using Pierce™ BCA Protein Assay Kit. mCYP1A2 and mCYP3A11 activities were evaluated based on phenacetin O-deethylation and nifedipine oxidation activities, respectively. The incubation mixture of 500 µL consisted of microsomes, substrate ([…]), and NADPH. […] The final organic solvent concentration in the incubation mixture was not higher than 1%. Each experiment was repeated three times (duplicated each). Determination of the concentrations of metabolites of mCYP1A2 (paracetamol) and mCYP3A11 (dehydronifedipine) in the reaction was performed using HPLC Agilent 1260 Infinity II with mobile gradient phase between methanol and distilled water at an initial ratio of 20:80 (v:v) and UV detection (240 nm). Calibration curves for both CYP450 activities were created over a concentration range of 1–50 µM. Oxidized nifedipine concentrations were determined using HPLC as follows: UV detection at 235 nm with an isocratic mobile phase consisting of methanol and distilled water (70:30, v:v). […] In each analytical batch, quality control (QC) samples were run in duplicate at low, medium, and high concentrations. Acceptance criteria were four out of six QC analyses falling within 100 ± 15% of the nominal values.
The microsomal protein concentration for both mCYP1A2 and […] was 25 μg protein per lane. Proteins were denatured by combining equal volumes of liver microsomes with sample buffer (1:19 (v:v) of 2-mercaptoethanol and 2x Laemmle buffer) and heating at 100 °C for 5 min. Proteins were separated using 12% SDS-PAGE according to their size characteristics before being migrated to nitrocellulose blotting membranes.

mCYP3A11 = experiment: ex vivo mCYP3A11 activity in mouse liver microsomes (nifedipine oxidation); settings: daily oral 100 mg/kg body weight
Excerpt: Phenacetin and nifedipine are substrates of CYP1A2 and CYP3A11, respectively. Both substrates are converted via the CYP enzyme to paracetamol and dehydronefedipine, respectively. The concentrations of paracetamol and dehydronefedipine were used to determine the activities of mCYP1A2 and mCYP3A11. The effects of atractylodin and β-eudesmol on mCYP1A2 and mCYP3A11 activities were, respectively, determined by measuring paracetamol (mCYP1A2-dependent metabolite) and dehydronifiedipine (mCYP3A11-dependent metabolite) concentrations.
as §1, §2

## C=C1CCC[C@]2(C)CC[C@@H](C(C)(C)O)C[C@@H]12 [β-Eudesmol]
rCYP1A2; Median IC50 (Range) rCYP1A2, median (range)
  IC50: > 562 µM
mCYP1A2; 1 day, control 1.5
  Protein expression ratio of mCYP1A2: 1.06
mCYP1A2; 7 days, control 1.88
  Protein expression ratio of mCYP1A2: 1.83
mCYP1A2; 14 days, control 2.42
  Protein expression ratio of mCYP1A2: 2.05
mCYP1A2; 21 days, control 2.20, listed as β-eudesmol, 100 mg/kg
  Protein expression ratio of mCYP1A2: significantly downregulated
mCYP1A2; 21 days, control 2.20, listed as β‐eudesmol, 100 mg/kg
  Protein expression ratio of mCYP1A2: 1.00
mCYP3A11; 1 day, control 6.70
  Dehydronifedipine concentration (mCYP3A11 activity): 6.90 µM
mCYP3A11; 7 days, control 6.90
  Dehydronifedipine concentration (mCYP3A11 activity): 7.5 µM
mCYP3A11; 14 days, control 7.55, listed as β-eudesmol, 100 mg/kg
  Dehydronifedipine concentration (mCYP3A11 activity): significantly reduced
mCYP3A11; 14 days, control 7.55, listed as β‐eudesmol, 100 mg/kg
  Dehydronifedipine concentration (mCYP3A11 activity): 4.00 µM
mCYP3A11; 21 days, control 7.75, listed as β-eudesmol, 100 mg/kg
  Dehydronifedipine concentration (mCYP3A11 activity): significantly reduced
mCYP3A11; 21 days, control 7.75, listed as β‐eudesmol, 100 mg/kg
  Dehydronifedipine concentration (mCYP3A11 activity): 3.20 µM

## C/C=C/C#CC#C/C=C/c1ccco1 [Atractylodin]
rCYP1A2; median (range)
  Median IC50 (Range) rCYP1A2: 90.6 (83.8–102.3) µg/ml
rCYP1A2; read-out: Median IC50 (Range) rCYP1A2, median (range)
  IC50: 497 µM
mCYP1A2; 1 day, control 1.5
  Protein expression ratio of mCYP1A2: 1.39
mCYP1A2; 7 days, control 1.88
  Protein expression ratio of mCYP1A2: 1.55
mCYP1A2; 14 days, control 2.42
  Protein expression ratio of mCYP1A2: 1.77
mCYP1A2; 21 days, control 2.20, 100 mg/kg
  Protein expression ratio of mCYP1A2: significantly downregulated
mCYP1A2; 21 days, control 2.20, listed as Atactylodin, 100 mg/kg
  Protein expression ratio of mCYP1A2: 1.33
mCYP3A11; 1 day, control 6.70, 100 mg/kg
  Dehydronifedipine concentration (mCYP3A11 activity): significant reduction
mCYP3A11; 1 day, control 6.70, listed as Atactylodin, 100 mg/kg
  Dehydronifedipine concentration (mCYP3A11 activity): 5.35 µM
mCYP3A11; 7 days, control 6.90, 100 mg/kg
  Dehydronifedipine concentration (mCYP3A11 activity): significant reduction
mCYP3A11; 7 days, control 6.90, listed as Atactylodin, 100 mg/kg
  Dehydronifedipine concentration (mCYP3A11 activity): 5.20 µM
mCYP3A11; 14 days, control 7.55, 100 mg/kg
  Dehydronifedipine concentration (mCYP3A11 activity): significant reduction
mCYP3A11; 14 days, control 7.55, listed as Atactylodin, 100 mg/kg
  Dehydronifedipine concentration (mCYP3A11 activity): 6.10 µM
mCYP3A11; 21 days, control 7.75, 100 mg/kg
  Dehydronifedipine concentration (mCYP3A11 activity): significant reduction
mCYP3A11; 21 days, control 7.75, listed as Atactylodin, 100 mg/kg
  Dehydronifedipine concentration (mCYP3A11 activity): 3.75 µM

— PMC10095747, “Modulatory Effects of Atractylodin and β-Eudesmol on Human Cytochrome P450 Enzymes: Potential Drug-Drug Interactions” (Molecules, 2023)
